≈ marks a conversion by molar mass, not a printed value. Entries after “also recorded” stand apart in the source; their conditions may differ. Square brackets hold non-standard residues; d marks the D form. Peptide text beside a SMILES is read from it. * marks the point of attachment. FITC = O=C1OC2(c3ccc(O)cc3Oc3cc(O)ccc32)c2ccc(NC(=S)*)cc21; Bip = N[C@@H](Cc1ccc(-c2ccccc2)cc1)C(=O)O; Dip = N[C@H](C(=O)O)C(c1ccccc1)c1ccccc1; Ahx = NCCCCCC(=O)O
Tests used:
C. albicans [1] = assay: Scanning electron microscopy, cell morphology; assay type: cell-based, Candida albicans; conditions: 50 μM peptide, 10^7 CFU/mL, SD broth, 28 °C, 5 min
Method: Time-course morphological studies of C. albicans were performed by scanning electron microscopy (SEM). Overnight cultures of C. albicans were sub-cultured and grown in SD broth. Then, 10^7 CFU/mL of C. albicans was treated with 0.25 mM P-113 in SD broth at 28 °C. Samples were collected following 1, 2, 3, 4, 5, and 6 h of incubation. Another experiment was performed to observe the morphological changes caused over in a short time caused by Bip-P-113 and Dip-P-113. Briefly, 10^7 CFU/mL of C. albicans in SD broth was treated for 5 min at 28 °C with 50 μM P-113, Bip-P-113, and Dip-P-113. After harvest, cells were resuspended in fixation solution (2.5% glutaraldehyde in 20 mM phosphate buffer pH 7.4) and then placed on Thermanox substrate-coated cover slips at 4 °C for 12 h. The cover slips were carefully washed three times with 20 mM phosphate buffer (pH 7.4), followed by incubation in post-fixation solution (1% OsO4 in 20 mM phosphate buffer pH 7.4) at room temperature for an hour. After being washed three times with 20 mM phosphate buffer (pH 7.4), the cover slips were air-dried for an hour by dehydration with a graded series of ethanol. Samples were gold-coated and observed under an S-4700 field-emission (FE)-SEM (Hitachi, Ltd., Tokyo, Japan) at an acceleration voltage of 5 kV.

[2] = histidine residues replaced with non-natural amino acids; cited from earlier work
Candida albicans = assay type: cell-based; conditions: 1× MIC, 30 min, SD broth, 28 °C, 5 × 10^4 CFU/mL, normal salt conditions, triplicate
Method: Figure 7 Time killing activity of FITC-labeled P-113 peptide and its FITC-labeled derivatives against Candida albicans. Cells were treated with 1× MIC of (a) P-113 (black circle), FITC-labeled N-terminal truncated P-113 (black square), FITC-labeled C-terminal truncated P-113 (black triangle), and (b) treated with FITC-labeled Bip-P-113 (white square), and FITC-labeled Dip-P-113 (white triangle). Killed cells (%) = (cell number in peptide-free control − cell number in sample)/(cell number in peptide-free control) × 100. Error bars represent the standard errors of the mean.
C. albicans were cultivated onto Sabouraud dextrose agar plates overnight and sub-cultured twice before time killing assays. A total of 5 × 10^4 CFU/mL of C. albicans cells were treated with 1× MIC of FITC-conjugated P-113 peptides and their derivatives in SD broth for 10, 20, 30, 60, and 120 min at 28 °C. After that time, serial dilutions (1:10) of the incubation mixtures were added onto SD agar. The numbers of CFU were counted after 24 h of incubation at 28 °C. The percentage of killed cells was calculated by comparison with the number of cells in a control sample incubated without P-113 peptide. The assays were performed in triplicate.

C. albicans [3] = assay: Confocal laser microscopy, localization of FITC peptides; assay type: cell-based, Candida albicans; conditions: 50 μM FITC-conjugated peptide, 10^7 CFU/mL, SD broth, 28 °C, 5 min
Method: Firstly, 10^7 CFU/mL of C. albicans was incubated with 0.25 mM FITC P-113 and 0.25 mM FITC alone (as a negative control) in SD broth at 28 °C for 1, 2, 3, 4, 5, and 6 h. Another experiment was performed to observe the short-term localization of Bip-P-113 and Dip-P-113 peptides. Briefly, log-phase C. albicans cultures were resuspended to a cell density of 10^7 CFU/mL in SD broth and treated for 5 min at 28 °C with 50 μM FITC-conjugated P-113, Bip-P-113, and Dip-P-113. After centrifugation, the cells were washed three times with 20 mM phosphate buffer (pH 7.4) to remove nonbinding peptides and fixed with 4% (w/v) paraformaldehyde in 20 mM phosphate buffer (pH 7.4) at room temperature for 20 min. Following fixation, the cells were centrifuged at 3500× g for 5 min, resuspended in phosphate buffer, and loaded onto a glass slide with a 1.4% solid agarose bed. The images were taken with a confocal laser scanning microscope (LSM 510 META, Carl Zeiss, Jena, Germany) equipped with a 40× C-Apochromat water-immersion objective lens (Carl Zeiss, Jena, Germany).

C. albicans [4] = assay: Flow cytometry, fluorescence of cells incubated with FITC peptides; assay type: cell-based, Candida albicans; conditions: 50 μM FITC peptide, 5 × 10^6 CFU/mL, SD broth, 28 °C, 30 min, n = 3
Method: Firstly, 5 × 10^6 CFU/mL of C. albicans cells were incubated with 50 µM FITC P-113, FITC N-terminal truncated P-113, and FITC C-terminal truncated P-113 peptides for 30 min at 28 °C in SD broth. The resuspended cell pellets described above were also used for flow cytometry experiments. Flow cytometric cell sorting was performed (10,000 events/sample) by using flow cytometry (BD Accuri™ C6 Plus Flow Cytomete, BD Biosciences, NJ, USA). The quantitative data were analyzed by Prism software.

C. albicans [5] = assay: Fluorescence microscopy, localization of FITC truncated peptides; assay type: cell-based, Candida albicans; conditions: 50 μM FITC peptide, 10^7 CFU/mL, SD broth, 28 °C, 30 min
Method: Firstly, 10^7 CFU/mL of C. albicans cells were incubated with 50 µM FITC N-terminal truncated P-113, FITC C-terminal truncated P-113 peptides, and FITC alone for 30 min at 28 °C in SD broth. After incubation, the cells were centrifuged at 3500× g for 5 min and then washed three times with 20 mM phosphate buffer (pH 7.4) to remove unbound peptides. The resulting pellets were resuspended and immobilized on the glass slips with a 1.4% solid agarose bed. Fluorescence images were captured using an inverted fluorescence microscope (ECLIPSE E400, Nikon, Tokyo, Japan) with a camera (AxioCam ICc5, ZEISS, Jena, Germany).

[6] = test system: C. albicans American Type Culture Collection (ATCC) 10,231; assay type: cell-based, Candida albicans; conditions: American Type Culture Collection (ATCC) 10,231, 24 h
Method: C. albicans (ATCC 10231) from the American Type Culture Collection (Manassas, VA, USA) was cultured at 28 °C on SD agar plates.
To determine the minimum inhibitory concentration (MIC) values of the FITC conjugated-P-113 peptides and their derivatives, a broth microdilution assay was used. Overnight-grown cultures of C. albicans in SD broth were sub-cultured for several hours and subsequently diluted to a final concentration of 5 × 10^4 CFU/mL in Mueller Hinton (MH) broth and LYM broth. A total of 100 μL of diluted microbe was transferred into each well of a 96-well plate, into which a 1 μL dilution series of peptides in sterile water (ranging from 50 to 0.78 μg/mL) was previously added. After incubation for 24 h at 28 ℃, the MIC value of P-113 peptides was determined as the lowest concentration at which no change in optical density was observed. The experiment was conducted three times, and average values were reported.

[7] = 10^7 CFU/mL of C. albicans in SD broth; conditions: C. albicans (ATCC 10231), 301 K, up to 24 h
[8] = 10^7 CFU/mL of C. albicans + 0.5 mM pepstatin A; conditions: C. albicans (ATCC 10231), 301 K, up to 24 h

Compound	Cell surface morphology (SEM), short exposure (C. albicans [1])	Degradation in serum [2]	Cellular localization of FITC peptide (C. albicans [3])	MIC, LYM Control [6] [µg/mL]	MIC, MH Broth [6] [µg/mL]	also measured
C[C@H](NC(=O)CCCCCNC(=S)Nc1ccc2c(c1)C(=O)OC21c2ccc(O)cc2Oc2cc(O)ccc21)C(=O)N[C@@H](CCCCN)C(=O)N[C@@H](CCCNC(=N)N)C(=O)N[C@@H](Cc1ccc(-c2ccccc2)cc1)C(=O)N[C@@H](Cc1ccc(-c2ccccc2)cc1)C(=O)NCC(=O)N[C@@H](Cc1ccc(O)cc1)C(=O)N[C@@H](CCCCN)C(=O)N[C@@H](CCCNC(=N)N)C(=O)N[C@@H](CCCCN)C(=O)N[C@@H](Cc1ccccc1)C(=O)N[C@@H](Cc1ccc(-c2ccccc2)cc1)C(N)=O [Bip-P-113] ({FITC-Ahx}-AKR[Bip][Bip]GYKRKF[Bip]-NH2; N-terminus assumed)	became rippled and showed deep pore formation	protects	accumulated on the surface of cells and did not translocate into the cytoplasm	–	–	Reduction in cell viability (Candida albicans): 99%
C[C@H](NC(=O)CCCCCNC(=S)Nc1ccc2c(c1)C(=O)OC21c2ccc(O)cc2Oc2cc(O)ccc21)C(=O)N[C@@H](CCCCN)C(=O)N[C@@H](CCCNC(=N)N)C(=O)N[C@@H](Cc1c[nH]cn1)C(=O)N[C@@H](Cc1c[nH]cn1)C(=O)NCC(=O)N[C@@H](Cc1ccc(O)cc1)C(=O)N[C@@H](CCCCN)C(=O)N[C@@H](CCCNC(=N)N)C(=O)N[C@@H](CCCCN)C(N)=O [C-ter truncated P-113] ({FITC-Ahx}-AKRHHGYKRK-NH2; N-terminus assumed)	–	–	–	50 (≈ 28.1 µM)	>50	Fluorescence intensity of cells compared with cells incubated with intact P-113 (C. albicans [4]): dramatic decrease in fluorescence intensity; Green fluorescence in cells compared with N-terminal truncated P-113 (C. albicans [5]): less green fluorescence
C[C@H](NC(=O)CCCCCNC(=S)Nc1ccc2c(c1)C(=O)OC21c2ccc(O)cc2Oc2cc(O)ccc21)C(=O)N[C@@H](CCCCN)C(=O)N[C@@H](CCCNC(=N)N)C(=O)N[C@H](C(=O)N[C@H](C(=O)NCC(=O)N[C@@H](Cc1ccc(O)cc1)C(=O)N[C@@H](CCCCN)C(=O)N[C@@H](CCCNC(=N)N)C(=O)N[C@@H](CCCCN)C(=O)N[C@@H](Cc1ccccc1)C(=O)N[C@H](C(N)=O)C(c1ccccc1)c1ccccc1)C(c1ccccc1)c1ccccc1)C(c1ccccc1)c1ccccc1 [Dip-P-113] ({FITC-Ahx}-AKR[Dip][Dip]GYKRKF[Dip]-NH2; N-terminus assumed)	became rippled and showed deep pore formation	protects	accumulated on the surface of cells and did not translocate into the cytoplasm	–	–	–
N=C(N)NCCC[C@H](NC(=O)CCCCCNC(=S)Nc1ccc2c(c1)C(=O)OC21c2ccc(O)cc2Oc2cc(O)ccc21)C(=O)N[C@@H](Cc1c[nH]cn1)C(=O)N[C@@H](Cc1c[nH]cn1)C(=O)NCC(=O)N[C@@H](Cc1ccc(O)cc1)C(=O)N[C@@H](CCCCN)C(=O)N[C@@H](CCCNC(=N)N)C(=O)N[C@@H](CCCCN)C(=O)N[C@@H](Cc1ccccc1)C(=O)N[C@@H](Cc1c[nH]cn1)C(N)=O [N-ter truncated P-113] ({FITC-Ahx}-RHHGYKRKFH-NH2; N-terminus assumed)	–	–	–	25 (≈ 13.4 µM)	>50	–
AKRHHGYKRKFH	–	–	–	–	–	cleaved bond [7]: Lys10-Phe11, first_seen, 1 h; also recorded: Tyr7-Lys8, 2–3 h; also recorded: Lys8-Arg9; not cleaved [8]: no noticeable changes in ^1H-^15N HSQC chemical shifts in the presence of pepstatin A (24 h)

— publication PMC7178208 (International Journal of Molecular Sciences, 2020)
